Assay results taken from PubChem BioAssay AID743076.

System: P. falciparum blood stage, IPP rescue, flow cytometry 72 h
Experiment: IPP rescue of P. falciparum growth inhibition, mechanism study for antimalarial apicoplast targeting, P. falciparum blood stage (AID 743076)
Details: at 5 µM; hits give high values

O=C(O)C1Cc2c([nH]c3ccccc23)C(c2ccc(Cl)cc2Cl)N1 (stereo unspecified)
parasitemia ratio IPP rescue/non-rescue: 6.32
